Data from PubChem BioAssay (NCI).
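How tested: cells in 96-well plates exposed to compound for 48 hours at five concentrations. TGI denotes the concentration required for complete inhibition of growth.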

Columns and labels:
Assay in all cases: NCI anticancer screen, dose series, 48 h
SF-539 CNS = test system: SF-539 CNS
T-47D breast = test system: T-47D breast
UACC-257 melanoma = test system: UACC-257 melanoma
IGROV1 ovarian = test system: IGROV1 ovarian
UO-31 renal = test system: UO-31 renal
SK-MEL-2 melanoma = test system: SK-MEL-2 melanoma
HS 578T breast = test system: HS 578T breast
SK-MEL-28 melanoma = test system: SK-MEL-28 melanoma
NCI-H23 lung = test system: NCI-H23 lung
SF-268 CNS = test system: SF-268 CNS
HCT-116 colon = test system: HCT-116 colon
MDA-MB-231 breast = test system: MDA-MB-231 breast
TK-10 renal = test system: TK-10 renal
U251 CNS = test system: U251 CNS
BT-549 breast = test system: BT-549 breast
DU-145 prostate = test system: DU-145 prostate
RXF 393 renal = test system: RXF 393 renal
KM12 colon = test system: KM12 colon
NCI-H522 lung = test system: NCI-H522 lung
K-562 leukemia = test system: K-562 leukemia
A549 NSCLC = test system: A549 NSCLC
HOP-92 NSCLC = test system: HOP-92 NSCLC
NCI/ADR-RES ovarian = test system: NCI/ADR-RES ovarian
EKVX NSCLC = test system: EKVX NSCLC
HCT-15 colon = test system: HCT-15 colon
MDA-MB-435 = test system: MDA-MB-435
PC-3 prostate = test system: PC-3 prostate
SK-MEL-5 melanoma = test system: SK-MEL-5 melanoma
SK-OV-3 ovarian = test system: SK-OV-3 ovarian
RPMI-8226 leukemia = test system: RPMI-8226 leukemia
M14 melanoma = test system: M14 melanoma
CAKI-1 renal = test system: CAKI-1 renal
SW-620 colon = test system: SW-620 colon
OVCAR-5 ovarian = test system: OVCAR-5 ovarian
HL-60(TB) leukemia = test system: HL-60(TB) leukemia
UACC-62 melanoma = test system: UACC-62 melanoma
CCRF-CEM leukemia = test system: CCRF-CEM leukemia
OVCAR-4 ovarian = test system: OVCAR-4 ovarian
786-0 renal = test system: 786-0 renal
A498 renal = test system: A498 renal
NCI-H226 lung = test system: NCI-H226 lung
ACHN renal = test system: ACHN renal
HOP-62 NSCLC = test system: HOP-62 NSCLC
LOX IMVI melanoma = test system: LOX IMVI melanoma
SF-295 CNS = test system: SF-295 CNS
MCF7 breast = test system: MCF7 breast
SN12C renal = test system: SN12C renal
HCC-2998 colon = test system: HCC-2998 colon
COLO 205 colon = test system: COLO 205 colon
MOLT-4 leukemia = test system: MOLT-4 leukemia
MALME-3M melanoma = test system: MALME-3M melanoma
SNB-75 CNS = test system: SNB-75 CNS
OVCAR-8 ovarian = test system: OVCAR-8 ovarian
NCI-H460 lung = test system: NCI-H460 lung
HT29 colon = test system: HT29 colon
OVCAR-3 ovarian = test system: OVCAR-3 ovarian
SNB-19 CNS = test system: SNB-19 CNS
SR leukemia = test system: SR leukemia

O=C(O)CCC1NC(/C(=C/c2ccccc2O)NC(=O)c2ccccc2)OC1=O (centres undefined)
TGI (SF-539 CNS): > 100 µM | TGI (T-47D breast): > 100 µM | TGI (UACC-257 melanoma): > 100 µM | TGI (IGROV1 ovarian): > 100 µM | TGI (UO-31 renal): 45.8 µM | TGI (SK-MEL-2 melanoma): > 100 µM | TGI (HS 578T breast): > 100 µM | TGI (SK-MEL-28 melanoma): > 100 µM | TGI (NCI-H23 lung): > 100 µM | TGI (SF-268 CNS): > 100 µM | TGI (HCT-116 colon): > 100 µM | TGI (MDA-MB-231 breast): > 100 µM | TGI (TK-10 renal): > 100 µM | TGI (U251 CNS): > 100 µM | TGI (BT-549 breast): > 100 µM | TGI (DU-145 prostate): > 100 µM | TGI (RXF 393 renal): > 100 µM | TGI (KM12 colon): > 100 µM | TGI (NCI-H522 lung): > 100 µM | TGI (K-562 leukemia): > 100 µM | TGI (A549 NSCLC): > 100 µM | TGI (HOP-92 NSCLC): > 100 µM | TGI (NCI/ADR-RES ovarian): > 100 µM | TGI (EKVX NSCLC): > 100 µM | TGI (HCT-15 colon): > 100 µM | TGI (MDA-MB-435): > 100 µM | TGI (PC-3 prostate): > 100 µM | TGI (SK-MEL-5 melanoma): > 100 µM | TGI (SK-OV-3 ovarian): > 100 µM | TGI (RPMI-8226 leukemia): > 100 µM | TGI (M14 melanoma): > 100 µM | TGI (CAKI-1 renal): > 100 µM | TGI (SW-620 colon): > 100 µM | TGI (OVCAR-5 ovarian): > 100 µM | TGI (HL-60(TB) leukemia): > 100 µM | TGI (UACC-62 melanoma): > 100 µM | TGI (CCRF-CEM leukemia): > 100 µM | TGI (OVCAR-4 ovarian): > 100 µM | TGI (786-0 renal): > 100 µM | TGI (A498 renal): > 100 µM | TGI (NCI-H226 lung): > 100 µM | TGI (ACHN renal): > 100 µM | TGI (HOP-62 NSCLC): 62.4 µM | TGI (LOX IMVI melanoma): > 100 µM | TGI (SF-295 CNS): > 100 µM | TGI (MCF7 breast): > 100 µM | TGI (SN12C renal): > 100 µM | TGI (HCC-2998 colon): > 100 µM | TGI (COLO 205 colon): > 100 µM | TGI (MOLT-4 leukemia): > 100 µM | TGI (MALME-3M melanoma): > 100 µM | TGI (SNB-75 CNS): 72.4 µM | TGI (OVCAR-8 ovarian): > 100 µM | TGI (NCI-H460 lung): > 100 µM | TGI (HT29 colon): > 100 µM | TGI (OVCAR-3 ovarian): > 100 µM | TGI (SNB-19 CNS): > 100 µM

O=C(Nc1ccc(C(F)(F)F)cc1[N+](=O)[O-])c1cccnc1
TGI (SF-539 CNS): 25.5 µM | TGI (T-47D breast): > 100 µM | TGI (UACC-257 melanoma): > 100 µM | TGI (IGROV1 ovarian): > 100 µM | TGI (UO-31 renal): > 100 µM | TGI (SK-MEL-2 melanoma): > 100 µM | TGI (HS 578T breast): > 100 µM | TGI (SK-MEL-28 melanoma): > 100 µM | TGI (NCI-H23 lung): > 100 µM | TGI (SF-268 CNS): 30.6 µM | TGI (HCT-116 colon): > 100 µM | TGI (MDA-MB-231 breast): > 100 µM | TGI (TK-10 renal): > 100 µM | TGI (SR leukemia): > 100 µM | TGI (U251 CNS): > 100 µM | TGI (BT-549 breast): > 100 µM | TGI (DU-145 prostate): > 100 µM | TGI (KM12 colon): > 100 µM | TGI (NCI-H522 lung): 36.1 µM | TGI (K-562 leukemia): > 100 µM | TGI (A549 NSCLC): > 100 µM | TGI (NCI/ADR-RES ovarian): > 100 µM | TGI (EKVX NSCLC): > 100 µM | TGI (HCT-15 colon): > 100 µM | TGI (MDA-MB-435): 2.5 µM | TGI (SK-MEL-5 melanoma): > 100 µM | TGI (SK-OV-3 ovarian): > 100 µM | TGI (RPMI-8226 leukemia): > 100 µM | TGI (M14 melanoma): > 100 µM | TGI (CAKI-1 renal): 8.11 µM | TGI (SW-620 colon): > 100 µM | TGI (OVCAR-5 ovarian): > 100 µM | TGI (HL-60(TB) leukemia): > 100 µM | TGI (UACC-62 melanoma): 90.8 µM | TGI (CCRF-CEM leukemia): > 100 µM | TGI (OVCAR-4 ovarian): > 100 µM | TGI (786-0 renal): > 100 µM | TGI (A498 renal): > 100 µM | TGI (NCI-H226 lung): > 100 µM | TGI (ACHN renal): > 100 µM | TGI (HOP-62 NSCLC): > 100 µM | TGI (LOX IMVI melanoma): > 100 µM | TGI (SF-295 CNS): 23.9 µM | TGI (SN12C renal): > 100 µM | TGI (HCC-2998 colon): > 100 µM | TGI (COLO 205 colon): > 100 µM | TGI (MOLT-4 leukemia): > 100 µM | TGI (MALME-3M melanoma): 8.32 µM | TGI (SNB-75 CNS): > 100 µM | TGI (NCI-H460 lung): 36.8 µM | TGI (OVCAR-3 ovarian): 7.29 µM | TGI (SNB-19 CNS): > 100 µM
